Experimental data taken from ChEMBL document CHEMBL1201862, “PubChem BioAssay data set” (2004).
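Following 48 hours of exposure in 96-well plates, responses at five concentrations were used to interpolate endpoints linearly. GI50 = concentration required for 50% inhibition of growth.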 The source made the active and inactive calls. Cut-off read from the data, not from the text of the source: active = GI50 up to about 1.1 µM and inactive = higher.

Columns and labels:
Test in all cases: DTP human tumour cell line panel, 48 h
MDA-MB-231 = system: MDA-MB-231
NCI-H23 = system: NCI-H23
K562 = system: K562
PC-3 = system: PC-3
UACC-257 = system: UACC-257
SK-MEL-5 = system: SK-MEL-5
UACC-62 = system: UACC-62
EKVX = system: EKVX
HL-60 = system: HL-60
SK-MEL-2 = system: SK-MEL-2
ACHN = system: ACHN
NCI-H522 = system: NCI-H522
MCF7 = system: MCF7
SW-620 = system: SW-620
UO-31 = system: UO-31
SF-539 = system: SF-539
RPMI-8226 = system: RPMI-8226
HCT-116 = system: HCT-116
NCI-H226 = system: NCI-H226
HCC 2998 = system: HCC 2998

Compound | GI50 (MDA-MB-231) | GI50 (NCI-H23) | GI50 (K562) | GI50 (PC-3) | GI50 (UACC-257) | GI50 (SK-MEL-5) | GI50 (UACC-62) | GI50 (EKVX) | GI50 (HL-60) | GI50 (SK-MEL-2) | GI50 (ACHN) | GI50 (NCI-H522) | GI50 (MCF7) | GI50 (SW-620) | GI50 (UO-31) | GI50 (SF-539) | GI50 (RPMI-8226) | GI50 (HCT-116) | GI50 (NCI-H226) | GI50 (HCC 2998)
CCOC(=O)c1c(C)n(C)c2c1cc(O)c1[nH]c3c(c12)CCCC3 | 17.1 µM (inactive) | 21 µM (inactive) | 17.3 µM (inactive) | 18.3 µM (inactive) | 3.61 µM (inactive) | 12.3 µM (inactive) | 18.8 µM (inactive) | 17.6 µM (inactive) | 21.6 µM (inactive) | 18.5 µM (inactive) | 27.4 µM (inactive) | 14 µM (inactive) | 2.71 µM (inactive) | 20.8 µM (inactive) | 19.6 µM (inactive) | 19.2 µM (inactive) | 3.93 µM (inactive) | 17.9 µM (inactive) | – | –
CC(=O)NC1CONC1=O (stereo unspecified) | > 100 µM (inactive) | > 100 µM (inactive) | > 100 µM (inactive) | > 100 µM (inactive) | > 100 µM (inactive) | > 100 µM (inactive) | > 100 µM (inactive) | > 100 µM (inactive) | > 100 µM (inactive) | > 100 µM (inactive) | > 100 µM (inactive) | > 100 µM (inactive) | > 100 µM (inactive) | > 100 µM (inactive) | > 100 µM (inactive) | > 100 µM (inactive) | > 100 µM (inactive) | > 100 µM (inactive) | > 100 µM (inactive) | –
Cc1cc(S(=O)(=O)Nc2nc(N)n[nH]2)c(SCC(=O)O)cc1Cl | – | > 10 µM (inactive) | > 10 µM (inactive) | > 10 µM (inactive) | > 10 µM (inactive) | > 10 µM (inactive) | – | > 10 µM (inactive) | > 10 µM (inactive) | > 10 µM (inactive) | > 10 µM (inactive) | > 10 µM (inactive) | > 10 µM (inactive) | > 10 µM (inactive) | > 10 µM (inactive) | > 10 µM (inactive) | > 10 µM (inactive) | > 10 µM (inactive) | > 10 µM (inactive) | > 10 µM (inactive)
CC1(C)CC2C(=O)c3ccccc3NC2c2ccccc21 (stereo unspecified) | – | 4.98 µM (inactive) | 1.09 µM (active) | 3.6 µM (inactive) | 40.4 µM (inactive) | 3.5 µM (inactive) | 3.9 µM (inactive) | 43.2 µM (inactive) | 2.11 µM (inactive) | – | 14.4 µM (inactive) | 1.53 µM (inactive) | 4.33 µM (inactive) | 3.9 µM (inactive) | 6.03 µM (inactive) | 2.33 µM (inactive) | 2.54 µM (inactive) | 2.99 µM (inactive) | 11.9 µM (inactive) | 5.86 µM (inactive)
O=C(c1ccccc1)C1C(c2ccccc2[N+](=O)[O-])N1C1CCCCC1 (stereo unspecified) | 7.69 µM (inactive) | 16.4 µM (inactive) | 2.79 µM (inactive) | 3.95 µM (inactive) | 3.21 µM (inactive) | 11 µM (inactive) | 7.4 µM (inactive) | 13.7 µM (inactive) | – | 5.21 µM (inactive) | 1.94 µM (inactive) | 2.11 µM (inactive) | 3.65 µM (inactive) | – | 6.61 µM (inactive) | 2.1 µM (inactive) | 1.72 µM (inactive) | 1.8 µM (inactive) | 17 µM (inactive) | 6.79 µM (inactive)
Cc1n[n+]([O-])c(C)cc1[N+](=O)[O-] | 18.2 µM (inactive) | 16 µM (inactive) | – | 23.8 µM (inactive) | 15.6 µM (inactive) | 16.3 µM (inactive) | 17.7 µM (inactive) | 23.5 µM (inactive) | – | 20.1 µM (inactive) | 16.6 µM (inactive) | 12.3 µM (inactive) | 17.3 µM (inactive) | 15 µM (inactive) | 16.2 µM (inactive) | 27.6 µM (inactive) | 0.552 µM (active) | 16.1 µM (inactive) | 26.9 µM (inactive) | 12.5 µM (inactive)
COCN(CCC1=CCCCC1)C(=O)OC | > 100 µM (inactive) | 51.6 µM (inactive) | 61.5 µM (inactive) | > 100 µM (inactive) | > 100 µM (inactive) | 81.7 µM (inactive) | > 100 µM (inactive) | > 100 µM (inactive) | – | > 100 µM (inactive) | > 100 µM (inactive) | 38.1 µM (inactive) | 43.1 µM (inactive) | > 100 µM (inactive) | 46.3 µM (inactive) | – | > 100 µM (inactive) | 41.4 µM (inactive) | – | > 100 µM (inactive)
O=CC1C(=O)Nc2nc3ccccc3n2C1c1ccccc1 (stereo unspecified) | 15.4 µM (inactive) | 19.2 µM (inactive) | 4.37 µM (inactive) | 18.4 µM (inactive) | 15 µM (inactive) | 14.6 µM (inactive) | 15.7 µM (inactive) | 22.5 µM (inactive) | 20.6 µM (inactive) | 17.3 µM (inactive) | 17.3 µM (inactive) | 12.8 µM (inactive) | 10.6 µM (inactive) | 17.8 µM (inactive) | 13.7 µM (inactive) | 17.9 µM (inactive) | 16.3 µM (inactive) | 12.4 µM (inactive) | 17.1 µM (inactive) | –
CCOC(=O)C(=[N+]=[N-])C(=O)C1(C(=O)OCC)CCN(C(=O)c2ccccc2)C1=O (stereo unspecified) | > 100 µM (inactive) | > 100 µM (inactive) | – | > 100 µM (inactive) | > 100 µM (inactive) | > 100 µM (inactive) | > 100 µM (inactive) | > 100 µM (inactive) | > 100 µM (inactive) | > 100 µM (inactive) | > 100 µM (inactive) | > 100 µM (inactive) | > 100 µM (inactive) | – | > 100 µM (inactive) | > 100 µM (inactive) | – | > 100 µM (inactive) | > 100 µM (inactive) | –
CC(C)(C)NCc1cc(C(C)(C)C)cc(-c2ccc(Cl)cc2)c1O | 11.2 µM (inactive) | 12.6 µM (inactive) | – | – | 28.2 µM (inactive) | 16.2 µM (inactive) | 13.7 µM (inactive) | 12.7 µM (inactive) | 5.33 µM (inactive) | 18.4 µM (inactive) | 13.8 µM (inactive) | 11 µM (inactive) | 14.6 µM (inactive) | – | 2.82 µM (inactive) | 11.9 µM (inactive) | 9.53 µM (inactive) | 13.2 µM (inactive) | – | 14.7 µM (inactive)
O=Nc1c(-c2cccc([N+](=O)[O-])c2)nc2cnccn12 | 13.8 µM (inactive) | 16.7 µM (inactive) | 18.3 µM (inactive) | 24.9 µM (inactive) | 19.7 µM (inactive) | 29.4 µM (inactive) | 18.5 µM (inactive) | 34 µM (inactive) | 34.2 µM (inactive) | 27.9 µM (inactive) | 3.63 µM (inactive) | 14.6 µM (inactive) | 36 µM (inactive) | 10.1 µM (inactive) | 11.7 µM (inactive) | 20.3 µM (inactive) | – | 4.68 µM (inactive) | 18.5 µM (inactive) | –
O=C(NCc1ccccc1)c1cnc(Cl)cn1 | 85.5 µM (inactive) | 23.3 µM (inactive) | – | – | 53 µM (inactive) | 54 µM (inactive) | > 100 µM (inactive) | > 100 µM (inactive) | > 100 µM (inactive) | 48.1 µM (inactive) | 20.1 µM (inactive) | 2.12 µM (inactive) | > 100 µM (inactive) | > 100 µM (inactive) | 18.1 µM (inactive) | > 100 µM (inactive) | 44.2 µM (inactive) | 79.8 µM (inactive) | > 100 µM (inactive) | 17.3 µM (inactive)
CNC(=O)Nc1cc2c3c(c1)CCCN3CCC2 | > 10 µM (inactive) | > 10 µM (inactive) | > 10 µM (inactive) | > 10 µM (inactive) | > 10 µM (inactive) | > 10 µM (inactive) | > 10 µM (inactive) | > 10 µM (inactive) | – | > 10 µM (inactive) | > 10 µM (inactive) | > 10 µM (inactive) | > 10 µM (inactive) | > 10 µM (inactive) | – | > 10 µM (inactive) | > 10 µM (inactive) | > 10 µM (inactive) | > 10 µM (inactive) | > 10 µM (inactive)
C/C(O)=C/C(=O)c1[nH]c(C(=O)O)cc1C1CCN(Cc2ccccc2)C1=O (stereo unspecified) | 33.2 µM (inactive) | 17.9 µM (inactive) | 29.4 µM (inactive) | 32.7 µM (inactive) | 22.4 µM (inactive) | 19.9 µM (inactive) | 18.5 µM (inactive) | 21.3 µM (inactive) | – | 22.8 µM (inactive) | 28.6 µM (inactive) | 23.7 µM (inactive) | 22.1 µM (inactive) | 29.5 µM (inactive) | 14.2 µM (inactive) | – | 20.7 µM (inactive) | 24.3 µM (inactive) | – | 13.2 µM (inactive)
Cn1cnc([N+](=O)[O-])c1[Se]c1ncnc2nc[nH]c12 | 5 µM (inactive) | 17.3 µM (inactive) | 4.07 µM (inactive) | 20.6 µM (inactive) | 2.04 µM (inactive) | 1.66 µM (inactive) | 1.77 µM (inactive) | 21.2 µM (inactive) | – | 10.4 µM (inactive) | 17.1 µM (inactive) | 3.57 µM (inactive) | 13.6 µM (inactive) | 10.3 µM (inactive) | 3.65 µM (inactive) | 13.4 µM (inactive) | 5.01 µM (inactive) | 2.34 µM (inactive) | 10.5 µM (inactive) | –
CC[C@@]1(O)C(=O)OCc2c1cc1n(c2=O)Cc2cc3cc(O)ccc3nc2-1 [HYDROXYCAMPTOTHECIN] | 0.867 µM (active) | 0.0176 µM (active) | – | 0.084 µM (active) | – | – | < 0.0075 µM (active) | – | 0.0161 µM (active) | 0.473 µM (active) | < 0.0116 µM (active) | 0.0105 µM (active) | < 0.0075 µM (active) | – | – | 0.00826 µM (active) | – | – | – | –
